Tested on: SREBP pathway
Experiment: SREBP luciferase reporter gene system (SRE-luciferase assay)
Type: cell-based, human
Conditions: Huh-7/SRE-luc cells, sterol-deficient medium, 0.01-10 µM
Experimental: Huh-7/SRE-luc cells were incubated in sterol-deficient medium (5% lipoprotein deficient serum, 2 µM lovastatin, 10 µM mevalonic acid) with corresponding concentrations of compounds for 16 hours. The Huh-7/SRE-luc cells were human hepatoma cell line Huh-7 stably expressing LDLR promotor-luciferase and green fluorescent protein (GFP). These cells were obtained by transfecting Huh-7 with pLDLR-promotor-luciferase and pEGFP-N1 plasmids, followed by screening under G418 antibiotic selection pressure. The Huh-7 cells were purchased from ATCC, the pLDLR-promotor-luciferase plasmid was obtained by molecular cloning methods, and the pEGFP-N1 plasmid was purchased from Addgene.
After compound treatment, the cells were lysed with lysis buffer (E397A, Promega). After the addition of luciferase substrate (E1500, Promega), the activity of SRE-driven luciferase was measured using a BioTek Synergy HTX microplate reader (including but not limited to this type of instrument). The fluorescence intensity of green fluorescent protein (EGFP) was also measured using the above BioTek microplate reader (including but not limited to this type of instrument) and served as an internal control. The ratio of SRE-driven luciferase activity divided by the fluorescence intensity of green fluorescent protein was used as an indicator of SREBP pathway activity. The test data for each test compound were analyzed using Prism software (with the DMSO-treated group as the reference to calculate the compound inhibition rate, fitted using the Prism log(inhibitor) vs. response--Variable slope (four-parameter) model, calculation formula: Y = Bottom + (Top - Bottom)/(1 + 10^((LogIC50 - X) × HillSlope))), to obtain the IC50 parameters of the compounds.
Using the method described in 1.1, the inhibitory effect of the compounds of the present disclosure on the SREBP pathway was tested. The concentration gradient for each compound was designed as 0.01, 0.03, 0.1, 0.3, 1.0, 3.0, and 10 µM, with the vehicle DMSO as the control.

Row | Compound | IC50 (Homo sapiens, Huh-7, 16 h) | IC50 (16 hours)
1 | C[C@H](CCCC(O)c1ncco1)[C@H]1CC[C@H]2[C@H]3[C@H](CC[C@]12C)[C@@]1(C)CC[C@H](O)[C@H](O)[C@@H]1CC3(F)F (stereo partly drawn) [Compound 99, (1R,3aS,3bS,5aR,6R,7S,9aR,9bS,11aR)-4,4-difluoro-1-[(2R)-6-hydroxy-6-(1,3-oxazol-2-yl)hexan-2-yl]-9a,11a-dimethylhexadecahydro-1H-cyclopenta[1,2-a]phenanthrene-6,7-diol] | 0.243 µM | –
2 | COc1ncc(F)cc1[C@H](O)CCC[C@@H](C)[C@H]1CC[C@H]2[C@H]3[C@H](CC[C@]12C)[C@@]1(C)CC[C@H](O)[C@H](O)[C@@H]1CC3(F)F (single isomer, unassigned) [Compound 231] | 0.062 µM | –
3 | COc1ccccc1C(CCC[C@@H](C)[C@H]1CC[C@H]2[C@@H]3CC[C@H]4[C@@H](O)[C@@H](O)CC[C@]4(C)[C@H]3CC[C@]12C)OC (stereo partly drawn) [Compound 22, 24-[methoxy(2-methoxyphenyl)methyl]-5α-cholane-3β,4β-diol] | 2.01 µM | –
4 | COc1ccnc(C[C@@H](O)CCC[C@@H](C)[C@H]2CC[C@H]3[C@H]4[C@H](CC[C@]23C)[C@@]2(C)CC[C@H](O)[C@H](O)[C@@H]2CC4(F)F)c1 (stereo in doubt) [Compound 304, (1R,3aS,3bS,5aR,6R,7S,9aR,9bS,11aR)-4,4-difluoro-1-[(2R,6S)-6-hydroxy-7-(4-methoxypyridin-2-yl)heptan-2-yl]-9a,11a-dimethylhexadecahydro-1H-cyclopenta[1,2-a]phenanthrene-6,7-diol] | 0.243 µM | –
5 | C[C@H](CCCC(O)c1ccc(F)nc1F)[C@H]1CC[C@H]2[C@H]3[C@H](CC[C@]12C)[C@@]1(C)CC[C@H](O)[C@H](O)[C@@H]1CC3(F)F (single isomer, unassigned) [Compound 226, (1R,3aS,3bS,5aR,6R,7S,9aR,9bS,11aR)-1-[(2R,6S)-6-(2,6-difluoropyridin-3-yl)-6-hydroxyhexan-2-yl]-4,4-difluoro-9a,11a-dimethylhexadecahydro-1H-cyclopenta[1,2-a]phenanthrene-6,7-diol or (1R,3aS,3bS,5aR,6R,7S,9aR,9bS,11aR)-1-[(2R,6R)-6-(2,6-difluoropyridin-3-yl)-6-hydroxyhexan-2-yl]-4,4-difluoro-9a,11a-dimethylhexadecahydro-1H-cyclopenta[1,2-a]phenanthrene-6,7-diol] | – | 0.1 µM
6 | COc1cc(Cl)ccc1[C@@H](O)CCC[C@@H](C)[C@H]1CC[C@H]2C3=C(F)C[C@H]4[C@@H](O)[C@@H](O)CC[C@]4(C)[C@H]3CC[C@]12C [Compound 111, (1R,3aR,5aR,6R,7S,9aR,9bR,11aR)-1-[(2R,6S)-6-(4-chloro-2-methoxyphenyl)-6-hydroxyhexan-2-yl]-4-fluoro-9a,11a-dimethyl-2,3,3a,5,5a,6,7,8,9,9a,9b,10,11,11a-tetradecahydro-1H-cyclopenta[1,2-a]phenanthrene-6,7-diol] | 1.48 µM | –
7 | COc1cc(F)nc(OC)c1C(O)CCC[C@@H](C)[C@H]1CC[C@H]2[C@H]3[C@H](CC[C@]12C)[C@@]1(C)CC[C@H](O)[C@H](O)[C@@H]1CC3(F)F (stereo partly drawn) [Compound 214, (1R,3aS,3bS,5aR,6R,7S,9aR,9bS,11aR)-4,4-difluoro-1-[(2R)-6-(6-fluoro-2,4-dimethoxypyridin-3-yl)-6-hydroxyhexan-2-yl]-9a,11a-dimethylhexadecahydro-1H-cyclopenta[1,2-a]phenanthrene-6,7-diol] | 0.183 µM | –
8 | C[C@H](CCC[C@@H](O)c1ncc(F)cc1F)[C@H]1CC[C@H]2[C@H]3[C@H](CC[C@]12C)[C@@]1(C)CC[C@H](O)[C@H](O)[C@@H]1CC3(F)F (single isomer, unassigned) [Compound 280] | 0.238 µM | –
9 | C[C@H](CCCC(O)c1ccc(F)nc1F)[C@H]1CC[C@H]2[C@H]3[C@H](CC[C@]12C)[C@@]1(C)CC[C@H](O)[C@H](O)[C@@H]1CC3(F)F (stereo partly drawn) [Compound 148, (1R,3aS,3bS,5aR,6R,7S,9aR,9bS,11aR)-1-[(2R)-6-(2,6-difluoropyridin-3-yl)-6-hydroxyhexan-2-yl]-4,4-difluoro-9a,11a-dimethylhexadecahydro-1H-cyclopenta[1,2-a]phenanthrene-6,7-diol] | 0.08 µM | –
10 | COc1nc(F)ccc1C(C)(O)CCC[C@@H](C)[C@H]1CC[C@H]2[C@H]3[C@H](CC[C@]12C)[C@@]1(C)CC[C@H](O)[C@H](O)[C@@H]1CC3(F)F (stereo partly drawn) [Compound 308, (1R,3aS,3bS,5aR,6R,7S,9aR,9bS,11aR)-4,4-difluoro-1-[(2R)-6-(6-fluoro-2-methoxypyridin-3-yl)-6-hydroxyheptan-2-yl]-9a,11a-dimethylhexadecahydro-1H-cyclopenta[1,2-a]phenanthrene-6,7-diol] | 0.112 µM | –
11 | COc1cccc(F)c1[C@H](F)CCC[C@@H](C)[C@H]1CC[C@H]2[C@H]3[C@H](CC[C@]12C)[C@@]1(C)CC[C@H](O)[C@H](O)[C@@H]1CC3(F)F (single isomer, unassigned) [Compound 216] | 2.65 µM | –
12 | COc1c(F)cccc1C(O)CCC[C@@H](C)[C@H]1CC[C@H]2C3=C(F)C[C@H]4[C@@H](O)[C@@H](O)CC[C@]4(C)[C@H]3CC[C@]12C (stereo partly drawn) [Compound 48, (1R,3aR,5aR,6R,7S,9aR,9bR,11aR)-4-fluoro-1-[(2R)-6-(3-fluoro-2-methoxyphenyl)-6-hydroxyhexan-2-yl]-9a,11a-dimethyl-2,3,3a,5,5a,6,7,8,9,9a,9b,10,11,11a-tetradecahydro-1H-cyclopenta[1,2-a]phenanthrene-6,7-diol] | 0.203 µM | –
13 | COc1ccnc(F)c1[C@@H](O)CCC[C@@H](C)[C@H]1CC[C@H]2[C@H]3[C@H](CC[C@]12C)[C@@]1(C)CC[C@H](O)[C@H](O)[C@@H]1CC3(F)F (single isomer, unassigned) [Compound 229] | 0.049 µM | –
14 | C[C@H](CCC(=O)N(C)c1ccccc1F)[C@H]1CC[C@H]2[C@@H]3CC[C@H]4[C@@H](O)[C@@H](O)CC[C@]4(C)[C@H]3CC[C@]12C [Compound 47, (3S,4R,5R,8S,9S,10R,13R,14S,17R,20R)-N-(2-fluorophenyl)-3,4-dihydroxy-N-methyl-5α-cholan-24-amide] | 0.05 µM | –
15 | C[C@H](CCC[C@H](O)c1n[nH]c2ccccc12)[C@H]1CC[C@H]2[C@H]3[C@H](CC[C@]12C)[C@@]1(C)CC[C@H](O)[C@H](O)[C@@H]1CC3(F)F [Compound 319, (1R,3aS,3bS,5aR,6R,7S,9aR,9bS,11aR)-4,4-difluoro-1-[(2R,6S)-6-hydroxy-6-(1H-indazol-3-yl)hexan-2-yl]-9a,11a-dimethylhexadecahydro-1H-cyclopenta[1,2-a]phenanthrene-6,7-diol] | 0.104 µM | –
16 | C[C@H](CCCC(O)c1cnc2c(c1)OC(F)(F)O2)[C@H]1CC[C@H]2[C@H]3[C@H](CC[C@]12C)[C@@]1(C)CC[C@H](O)[C@H](O)[C@@H]1CC3(F)F (single isomer, unassigned) [Compound 286] | – | 0.26 µM
17 | C[C@H](CCC[C@H](O)c1ncc(F)cc1F)[C@H]1CC[C@H]2[C@H]3[C@H](CC[C@]12C)[C@@]1(C)CC[C@H](O)[C@H](O)[C@@H]1CC3(F)F (single isomer, unassigned) [Compound 279] | 0.202 µM | –
18 | COc1nc(F)ccc1[C@H](O)CC[C@@H](C)[C@H]1CC[C@H]2C3=C(F)C[C@H]4[C@@H](O)[C@@H](O)CC[C@]4(C)[C@H]3CC[C@]12C [Compound 340, (1R,3aR,5aR,6R,7S,9aR,9bR,11aR)-4-fluoro-1-[(2R,5R)-5-(6-fluoro-2-methoxypyridin-3-yl)-5-hydroxypentan-2-yl]-9a,11a-dimethyl-2,3,3a,5,5a,6,7,8,9,9a,9b,10,11,11a-tetradecahydro-1H-cyclopenta[1,2-a]phenanthrene-6,7-diol] | 0.108 µM | –
19 | COc1nc(C)ccc1C(O)CCC[C@@H](C)[C@H]1CC[C@H]2[C@H]3[C@H](CC[C@]12C)[C@@]1(C)CC[C@H](O)[C@H](O)[C@@H]1CC3(F)F (single isomer, unassigned) [Compound 218, (1R,3aS,3bS,5aR,6R,7S,9aR,9bS,11aR)-4,4-difluoro-1-[(2R,6R)-6-hydroxy-6-(2-methoxy-6-methylpyridin-3-yl)hexan-2-yl]-9a,11a-dimethylhexadecahydro-1H-cyclopenta[1,2-a]phenanthrene-6,7-diol or (1R,3aS,3bS,5aR,6R,7S,9aR,9bS,11aR)-4,4-difluoro-1-[(2R,6S)-6-hydroxy-6-(2-methoxy-6-methylpyridin-3-yl)hexan-2-yl]-9a,11a-dimethylhexadecahydro-1H-cyclopenta[1,2-a]phenanthrene-6,7-diol] | – | 0.141 µM
